In PubChem BioAssay AID2060603 (Molecular Pharmacology Branch, DTP, NCI, 2025):

System: 422866-222-R5-J1-PDC spheroid viability
Test: Anticancer human tumor 422866-222-R5-J1-PDC patient-derived pancreatic adenocarcinoma cell line growth inhibition [CLK]
Conditions: spheroids with HUVEC and MSC; for IC50: curve of first compound; for viability, T/C: stronger effect = lower value
Summary of the method: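 Multi-cell-type spheroids combined patient-derived tumor cells with HUVEC endothelial cells and human mesenchymal stem cells. Paired agents were dosed in half-log steps down from about clinical Cmax, or from 10 microM where Cmax was unknown.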

[1] = second compound 0.0316 µM, first compound 0.00316 µM
[2] = second compound 0.0316 µM, first compound 0.01 µM
[3] = second compound 0.0316 µM, first compound 0.0316 µM
[4] = second compound 0.0316 µM, first compound 0.1 µM
[5] = second compound 0.0316 µM, first compound 0.316 µM
[6] = second compound 0.0316 µM, first compound 1 µM
[7] = second compound 0.1 µM, first compound 0.00316 µM
[8] = second compound 0.1 µM, first compound 0.01 µM
[9] = second compound 0.1 µM, first compound 0.0316 µM
[10] = second compound 0.1 µM, first compound 0.1 µM
[11] = second compound 0.1 µM, first compound 0.316 µM
[12] = second compound 0.1 µM, first compound 1 µM
[13] = second compound 0.316 µM, first compound 0.00316 µM
[14] = second compound 0.316 µM, first compound 0.01 µM
[15] = second compound 0.316 µM, first compound 0.0316 µM
[16] = second compound 0.316 µM, first compound 0.1 µM
[17] = second compound 0.316 µM, first compound 0.316 µM
[18] = second compound 0.316 µM, first compound 1 µM
[19] = second compound 1 µM, first compound 0.00316 µM
[20] = second compound 1 µM, first compound 0.01 µM
[21] = second compound 1 µM, first compound 0.0316 µM
[22] = second compound 1 µM, first compound 0.1 µM
[23] = second compound 1 µM, first compound 0.316 µM
[24] = second compound 1 µM, first compound 1 µM
[25] = second compound 3.16 µM, first compound 0.00316 µM
[26] = second compound 3.16 µM, first compound 0.01 µM
[27] = second compound 3.16 µM, first compound 0.0316 µM
[28] = second compound 3.16 µM, first compound 0.1 µM
[29] = second compound 3.16 µM, first compound 0.316 µM
[30] = second compound 3.16 µM, first compound 1 µM
[31] = second compound 10 µM, first compound 0.00316 µM
[32] = second compound 10 µM, first compound 0.01 µM
[33] = second compound 10 µM, first compound 0.0316 µM
[34] = second compound 10 µM, first compound 0.1 µM
[35] = second compound 10 µM, first compound 0.316 µM
[36] = second compound 10 µM, first compound 1 µM
[37] = second compound 0.0316 µM, first compound 3.16 µM
[38] = second compound 0.0316 µM, first compound 10 µM
[39] = second compound 0.1 µM, first compound 3.16 µM
[40] = second compound 0.1 µM, first compound 10 µM
[41] = second compound 0.316 µM, first compound 3.16 µM
[42] = second compound 0.316 µM, first compound 10 µM
[43] = second compound 1 µM, first compound 3.16 µM
[44] = second compound 1 µM, first compound 10 µM
[45] = second compound 3.16 µM, first compound 3.16 µM
[46] = second compound 3.16 µM, first compound 10 µM
[47] = second compound 10 µM, first compound 3.16 µM
[48] = second compound 10 µM, first compound 10 µM
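Note: spheroids exposed to agents for seven days before readout.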

CCc1c2c(nc3ccc(O)cc13)-c1cc3c(c(=O)n1C2)COC(=O)[C@]3(O)CC + CN1CCN(c2cc(C(=O)Nc3cc4cc(-c5cnn(C)c5)ccc4cn3)ccn2)CC1
IC50 (second compound 0.0316 µM): < 3.16 nM | IC50 (second compound 0.1 µM): 4.48 nM | IC50 (second compound 0.316 µM): < 3.16 nM | IC50 (second compound 1 µM): < 3.16 nM | IC50 (second compound 3.16 µM): < 3.16 nM | IC50 (second compound 10 µM): < 3.16 nM | viability, T/C [1]: 49.4% | viability, T/C [2]: 41.2% | viability, T/C [3]: 37.6% | viability, T/C [4]: 37.1% | viability, T/C [5]: 27.9% | viability, T/C [6]: 20.3% | viability, T/C [7]: 54% | viability, T/C [8]: 42.3% | viability, T/C [9]: 34.8% | viability, T/C [10]: 40% | viability, T/C [11]: 24.7% | viability, T/C [12]: 24.3% | viability, T/C [13]: 52.9% | viability, T/C [14]: 44.1% | viability, T/C [15]: 45.7% | viability, T/C [16]: 31.9% | viability, T/C [17]: 24.2% | viability, T/C [18]: 25.2% | viability, T/C [19]: 12.3% | viability, T/C [20]: 12.7% | viability, T/C [21]: 12.4% | viability, T/C [22]: 14.1% | viability, T/C [23]: 30.5% | viability, T/C [24]: 24.3% | viability, T/C [25]: 6.01% | viability, T/C [26]: 8.18% | viability, T/C [27]: 12.9% | viability, T/C [28]: 19% | viability, T/C [29]: 25.1% | viability, T/C [30]: 31.6% | viability, T/C [31]: 1.14% | viability, T/C [32]: 0.8% | viability, T/C [33]: 2.73% | viability, T/C [34]: 2.68% | viability, T/C [35]: 4.83% | viability, T/C [36]: 5.54%

Cn1ncnc1[C@H]1c2n[nH]c(=O)c3cc(F)cc(c23)N[C@@H]1c1ccc(F)cc1 + CN1CCN(c2cc(C(=O)Nc3cc4cc(-c5cnn(C)c5)ccc4cn3)ccn2)CC1
IC50 (second compound 0.0316 µM): > 100 nM | IC50 (second compound 0.1 µM): > 100 nM | IC50 (second compound 0.316 µM): > 100 nM | IC50 (second compound 1 µM): < 0.316 nM | IC50 (second compound 3.16 µM): < 0.316 nM | IC50 (second compound 10 µM): < 0.316 nM | viability, T/C (second compound 0.0316 µM, first compound 0.000316 µM): 92.9% | viability, T/C (second compound 0.0316 µM, first compound 0.001 µM): 112% | viability, T/C [1]: 106% | viability, T/C [2]: 102% | viability, T/C [3]: 96% | viability, T/C [4]: 87.3% | viability, T/C (second compound 0.1 µM, first compound 0.000316 µM): 126% | viability, T/C (second compound 0.1 µM, first compound 0.001 µM): 114% | viability, T/C [7]: 113% | viability, T/C [8]: 97.2% | viability, T/C [9]: 90% | viability, T/C [10]: 80.1% | viability, T/C (second compound 0.316 µM, first compound 0.000316 µM): 99.3% | viability, T/C (second compound 0.316 µM, first compound 0.001 µM): 96.3% | viability, T/C [13]: 85.8% | viability, T/C [14]: 75.8% | viability, T/C [15]: 81.7% | viability, T/C [16]: 71.9% | viability, T/C (second compound 1 µM, first compound 0.000316 µM): 24% | viability, T/C (second compound 1 µM, first compound 0.001 µM): 22.9% | viability, T/C [19]: 19% | viability, T/C [20]: 22.3% | viability, T/C [21]: 22.3% | viability, T/C [22]: 18.7% | viability, T/C (second compound 3.16 µM, first compound 0.000316 µM): 7.18% | viability, T/C (second compound 3.16 µM, first compound 0.001 µM): 10.9% | viability, T/C [25]: 8.25% | viability, T/C [26]: 7.82% | viability, T/C [27]: 7.43% | viability, T/C [28]: 10.8% | viability, T/C (second compound 10 µM, first compound 0.000316 µM): 1.01% | viability, T/C (second compound 10 µM, first compound 0.001 µM): 2.31% | viability, T/C [31]: 1.8% | viability, T/C [32]: 0.75% | viability, T/C [33]: 3.12% | viability, T/C [34]: 2.33%

Nc1ccn(C2OC(CO)C(O)C2(F)F)c(=O)n1 (stereo not drawn) + CN1CCN(c2cc(C(=O)Nc3cc4cc(-c5cnn(C)c5)ccc4cn3)ccn2)CC1
IC50 (second compound 0.0316 µM): 74.3 nM | IC50 (second compound 0.1 µM): 84.6 nM | IC50 (second compound 0.316 µM): 156 nM | IC50 (second compound 1 µM): < 31.6 nM | IC50 (second compound 3.16 µM): < 31.6 nM | IC50 (second compound 10 µM): < 31.6 nM | viability, T/C [3]: 62.9% | viability, T/C [4]: 46.5% | viability, T/C [5]: 37.8% | viability, T/C [6]: 42% | viability, T/C [37]: 40.3% | viability, T/C [38]: 38.1% | viability, T/C [9]: 74.4% | viability, T/C [10]: 44.9% | viability, T/C [11]: 57.2% | viability, T/C [12]: 45.2% | viability, T/C [39]: 38.7% | viability, T/C [40]: 37.5% | viability, T/C [15]: 66.9% | viability, T/C [16]: 50.9% | viability, T/C [17]: 46.9% | viability, T/C [18]: 55.9% | viability, T/C [41]: 45.6% | viability, T/C [42]: 46% | viability, T/C [21]: 25.9% | viability, T/C [22]: 20.6% | viability, T/C [23]: 21.3% | viability, T/C [24]: 16.7% | viability, T/C [43]: 19.1% | viability, T/C [44]: 14.9% | viability, T/C [27]: 8.63% | viability, T/C [28]: 8.77% | viability, T/C [29]: 10.5% | viability, T/C [30]: 9.38% | viability, T/C [45]: 10.2% | viability, T/C [46]: 10.9% | viability, T/C [33]: 1.24% | viability, T/C [34]: 1.59% | viability, T/C [35]: 1.16% | viability, T/C [36]: 1.57% | viability, T/C [47]: 4.23% | viability, T/C [48]: 3.93%

O=c1[nH]cc(F)c(=O)[nH]1 + CN1CCN(c2cc(C(=O)Nc3cc4cc(-c5cnn(C)c5)ccc4cn3)ccn2)CC1
IC50 (second compound 0.0316 µM): > 10000 nM | IC50 (second compound 0.1 µM): > 10000 nM | IC50 (second compound 0.316 µM): > 10000 nM | IC50 (second compound 1 µM): < 31.6 nM | IC50 (second compound 3.16 µM): < 31.6 nM | IC50 (second compound 10 µM): < 31.6 nM | viability, T/C [3]: 116% | viability, T/C [4]: 129% | viability, T/C [5]: 114% | viability, T/C [6]: 95.6% | viability, T/C [37]: 86.9% | viability, T/C [38]: 77.1% | viability, T/C [9]: 125% | viability, T/C [10]: 104% | viability, T/C [11]: 108% | viability, T/C [12]: 90.5% | viability, T/C [39]: 84.7% | viability, T/C [40]: 91% | viability, T/C [15]: 90.4% | viability, T/C [16]: 100% | viability, T/C [17]: 91.9% | viability, T/C [18]: 96.1% | viability, T/C [41]: 80.7% | viability, T/C [42]: 80.6% | viability, T/C [21]: 24.2% | viability, T/C [22]: 19.1% | viability, T/C [23]: 25.6% | viability, T/C [24]: 17.9% | viability, T/C [43]: 23.7% | viability, T/C [44]: 22.5% | viability, T/C [27]: 8.44% | viability, T/C [28]: 10.5% | viability, T/C [29]: 9.21% | viability, T/C [30]: 8.88% | viability, T/C [45]: 10.5% | viability, T/C [46]: 9.67% | viability, T/C [33]: 1.68% | viability, T/C [34]: 1.08% | viability, T/C [35]: 0.97% | viability, T/C [36]: 1.08% | viability, T/C [47]: 3.1% | viability, T/C [48]: 1.13%
